Assay results: US20260069578A1, “TREATMENT OF NEUTROPHILIC DERMATOSES” (UNION THERAPEUTICS A/S, priority 2022, published 2026)
Converted amounts (≈) assume the structure as drawn.

Assays:
[1] = system: conscious, unrestrained ferret; test: Emesis study in ferrets; details: oral, 1, 3, 10 and 30 mg/kg
LPS-induced TNF-α = LPS-induced TNF-α in ferrets after single oral administration; details: LPS 3 mg/kg ip
[2] = target: purified human recombinant PDE4D protein (Homo sapiens, UniProt Q08499); test: PDE4D scintillation proximity assay (SPA); type: biochemical
Experimental: PDE4 enzymatic activity was measured in a scintillation proximity assay using purified human recombinant PDE4D protein.

PDE4A4 = PDE4A4 (Homo sapiens, UniProt P27815); type: biochemical
PDE4A10 = PDE4A10 (Homo sapiens, UniProt P27815); type: biochemical
PDE4B1 = PDE4B1 (Homo sapiens, UniProt Q07343); type: biochemical
Experimental: (§1) Enzyme Preparations: Partially purified human recombinant phosphodiesterases (PDEs) were obtained by cloning cDNA and expressing in S. frugiperda insect cells using a baculovirus expression system. Cells are harvested from culture by centrifuging at 400×g for 5 minutes. Cell pellet is resuspended in 20 ml of RIPA Buffer (150 mM NaCl, 10 mM Tris, 0.1% NP-40, pH8.3), 4 ml/200 ml of culture, plus protease inhibitors (100 μl/10 ml) and incubated on ice for 10-20 minutes then spun at 3500×g for 10 minutes at 4° C. Supernatant is kept and the pellet thrown away.
(§2) Tritium-labelled cyclic AMP is hydrolysed to 5′-AMP o by PDE. The 5′-AMP is then further hydrolysed to adenosine by nucleotidase in snake venom. An anion-exchange resin binds all charged nucleotides and leaves [^3H]adenosine as the only labelled compound to be counted by liquid scintillation.
(§3) 50 μl of diluted PDE enzyme was incubated with 50 μl of [^3H]-cAMP (specific activity 25 Ci/mmol) and 11 μl of 50% DMSO (or compound dilution) for 20 minutes at 30° C. The enzyme was diluted in 20 mM Tris HCl pH7.4 (×2.2 final concentration) and [3H]-cAMP was diluted in 10 mM MgCl2, 40 mM Tris HCl pH 7.4 (×2.2 final concentration). Reactions were carried out in Greiner 96 deep well 1 ml master-block. The plates were centrifuged for 9 seconds before the 20 minutes incubation. […] After incubation 200 μl Dowex resin (1×8, 200-400 mesh) was added and the plate shaken for 20 minutes then centrifuged for 3 minutes at 1000×g. 5 μl of supernatant was removed and added to 200 μl of MicroScint-20 in white plates (Greiner 96 well Optiplate) and shaken for 30 minutes before reading on Perkin Elmer TopCount Scintillation Counter. […] values were calculated using GraphPad Prism software (version 8).

PDE4B2 = PDE4B2 (Homo sapiens, UniProt Q07343); type: biochemical
Experimental: as §1, §2, §3

PDE4B3 = PDE4B3 (Homo sapiens, UniProt Q07343); type: biochemical
Experimental: as §1, §2, §3

PDE4D1 = PDE4D1 (Homo sapiens, UniProt Q08499); type: biochemical
Experimental: as §1, §2, §3

PDE4D2 = PDE4D2 (Homo sapiens, UniProt Q08499); type: biochemical; details: value generated by extrapolation of data
Experimental: as §1, §2, §3

PDE4D3 = PDE4D3 (Homo sapiens, UniProt Q08499); type: biochemical; details: value generated by extrapolation of data
Experimental: as §1, §2, §3

PDE4D5 = PDE4D5 (Homo sapiens, UniProt Q08499); type: biochemical
Experimental: as §1, §2, §3

PDE4D7 = PDE4D7 (Homo sapiens, UniProt Q08499); type: biochemical
Experimental: as §1, §2, §3

[3] = system: pyoderma gangrenosum with concomitant HS / PASH syndrome; test: Clinical study in two patients; type: in vivo, human
Experimental: The efficacy of the peroral anti-inflammatory PDE4-inhibitor Orismilast was investigated in two patients, one with pyoderma gangrenosum and concomitant HS, the other with PASH syndrome. Patients received a titrated dose of Orismilast of up to 40 mg twice daily for 16 weeks.

PDE4A1 = PDE4A1 (Homo sapiens, UniProt P27815)
resistant vegetative PG = details: one case, concomitantly with oral prednisone; cited from earlier work
[4] = system: TNF-α secretion from human whole blood; test: Whole blood TNF-α secretion assay (LPS or SEB stimulated); type: cell-based; details: 24 h, SEB 1 μg/mL, donor 2
[5] = Case 1, PASH syndrome, 20 mg twice daily
[6] = Case 2, PG and HS, 30 plus 40 mg daily

Chain of PDE4B2 (Q07343 1-564 isoform Q07343-2): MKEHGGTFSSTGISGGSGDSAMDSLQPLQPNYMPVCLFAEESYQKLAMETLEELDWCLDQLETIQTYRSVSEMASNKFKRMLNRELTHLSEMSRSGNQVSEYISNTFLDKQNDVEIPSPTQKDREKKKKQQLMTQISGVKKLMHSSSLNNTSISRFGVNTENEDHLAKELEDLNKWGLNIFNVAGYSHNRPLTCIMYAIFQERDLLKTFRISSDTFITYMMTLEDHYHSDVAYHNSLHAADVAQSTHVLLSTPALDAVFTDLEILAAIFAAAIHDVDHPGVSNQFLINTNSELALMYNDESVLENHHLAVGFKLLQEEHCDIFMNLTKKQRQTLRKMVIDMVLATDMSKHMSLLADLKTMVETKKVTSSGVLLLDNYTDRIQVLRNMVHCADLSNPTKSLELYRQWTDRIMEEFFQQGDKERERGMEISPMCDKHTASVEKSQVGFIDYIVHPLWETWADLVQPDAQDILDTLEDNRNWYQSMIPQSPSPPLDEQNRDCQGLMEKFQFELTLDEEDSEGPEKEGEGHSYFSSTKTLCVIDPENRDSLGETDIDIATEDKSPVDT
Chain of PDE4A1 (P27815 1-647 isoform P27815-4): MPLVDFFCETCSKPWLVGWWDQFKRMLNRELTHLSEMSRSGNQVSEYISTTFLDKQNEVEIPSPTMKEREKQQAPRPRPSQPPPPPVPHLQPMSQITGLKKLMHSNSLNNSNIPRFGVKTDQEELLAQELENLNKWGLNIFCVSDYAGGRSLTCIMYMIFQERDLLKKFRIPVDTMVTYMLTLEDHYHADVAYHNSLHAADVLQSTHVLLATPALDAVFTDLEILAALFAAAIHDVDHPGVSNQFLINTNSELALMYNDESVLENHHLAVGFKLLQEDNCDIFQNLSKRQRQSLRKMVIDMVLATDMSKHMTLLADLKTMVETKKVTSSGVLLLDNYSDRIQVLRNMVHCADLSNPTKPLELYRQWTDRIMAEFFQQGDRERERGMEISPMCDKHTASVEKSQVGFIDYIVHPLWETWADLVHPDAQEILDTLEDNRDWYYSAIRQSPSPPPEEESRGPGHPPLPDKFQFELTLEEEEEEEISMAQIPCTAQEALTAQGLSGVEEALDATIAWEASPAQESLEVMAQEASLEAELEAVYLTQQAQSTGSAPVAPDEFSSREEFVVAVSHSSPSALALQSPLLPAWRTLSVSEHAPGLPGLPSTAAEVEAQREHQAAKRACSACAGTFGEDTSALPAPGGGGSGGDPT
Chain of PDE4D3 (Q08499 1-673 isoform Q08499-2): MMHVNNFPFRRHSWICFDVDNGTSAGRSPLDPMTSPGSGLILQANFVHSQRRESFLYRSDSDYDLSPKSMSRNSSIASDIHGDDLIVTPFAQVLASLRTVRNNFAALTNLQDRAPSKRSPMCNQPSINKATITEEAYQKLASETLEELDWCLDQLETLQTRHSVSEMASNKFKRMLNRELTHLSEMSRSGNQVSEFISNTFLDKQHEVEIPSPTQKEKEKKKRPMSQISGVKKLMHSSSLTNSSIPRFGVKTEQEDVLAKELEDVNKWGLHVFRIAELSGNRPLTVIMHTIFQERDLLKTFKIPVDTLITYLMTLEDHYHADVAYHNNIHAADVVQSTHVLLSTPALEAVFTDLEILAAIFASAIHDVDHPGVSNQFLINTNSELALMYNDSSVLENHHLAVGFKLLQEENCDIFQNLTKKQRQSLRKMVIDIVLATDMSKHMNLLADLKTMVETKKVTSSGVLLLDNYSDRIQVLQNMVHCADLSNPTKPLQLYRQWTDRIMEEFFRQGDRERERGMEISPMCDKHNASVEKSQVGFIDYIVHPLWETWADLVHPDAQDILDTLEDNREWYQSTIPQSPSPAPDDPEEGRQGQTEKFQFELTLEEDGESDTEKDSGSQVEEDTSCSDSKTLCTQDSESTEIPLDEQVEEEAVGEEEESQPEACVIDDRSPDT
Chain of purified human recombinant PDE4D protein (Q08499 whole entry): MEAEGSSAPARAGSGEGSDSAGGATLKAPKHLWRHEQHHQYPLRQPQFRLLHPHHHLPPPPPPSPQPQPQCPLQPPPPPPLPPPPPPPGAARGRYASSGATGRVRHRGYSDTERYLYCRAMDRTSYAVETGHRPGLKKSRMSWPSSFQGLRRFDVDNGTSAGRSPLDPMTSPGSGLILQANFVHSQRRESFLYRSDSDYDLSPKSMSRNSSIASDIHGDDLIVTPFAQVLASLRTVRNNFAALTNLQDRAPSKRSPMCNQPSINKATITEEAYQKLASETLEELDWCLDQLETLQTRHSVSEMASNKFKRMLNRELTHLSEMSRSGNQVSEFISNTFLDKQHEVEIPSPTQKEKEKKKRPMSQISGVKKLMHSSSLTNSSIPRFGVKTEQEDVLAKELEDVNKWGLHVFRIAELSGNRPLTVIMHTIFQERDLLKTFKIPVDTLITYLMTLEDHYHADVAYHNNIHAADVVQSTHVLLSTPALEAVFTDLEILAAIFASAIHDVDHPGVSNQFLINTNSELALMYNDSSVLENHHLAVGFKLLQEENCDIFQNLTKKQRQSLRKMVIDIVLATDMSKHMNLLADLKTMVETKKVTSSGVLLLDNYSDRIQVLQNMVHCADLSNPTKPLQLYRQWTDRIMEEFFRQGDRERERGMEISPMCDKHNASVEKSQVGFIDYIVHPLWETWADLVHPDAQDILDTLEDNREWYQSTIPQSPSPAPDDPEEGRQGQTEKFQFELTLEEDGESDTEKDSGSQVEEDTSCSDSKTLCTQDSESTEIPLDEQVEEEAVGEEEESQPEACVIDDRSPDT
Chain of PDE4D7 (Q08499 1-748 isoform Q08499-11): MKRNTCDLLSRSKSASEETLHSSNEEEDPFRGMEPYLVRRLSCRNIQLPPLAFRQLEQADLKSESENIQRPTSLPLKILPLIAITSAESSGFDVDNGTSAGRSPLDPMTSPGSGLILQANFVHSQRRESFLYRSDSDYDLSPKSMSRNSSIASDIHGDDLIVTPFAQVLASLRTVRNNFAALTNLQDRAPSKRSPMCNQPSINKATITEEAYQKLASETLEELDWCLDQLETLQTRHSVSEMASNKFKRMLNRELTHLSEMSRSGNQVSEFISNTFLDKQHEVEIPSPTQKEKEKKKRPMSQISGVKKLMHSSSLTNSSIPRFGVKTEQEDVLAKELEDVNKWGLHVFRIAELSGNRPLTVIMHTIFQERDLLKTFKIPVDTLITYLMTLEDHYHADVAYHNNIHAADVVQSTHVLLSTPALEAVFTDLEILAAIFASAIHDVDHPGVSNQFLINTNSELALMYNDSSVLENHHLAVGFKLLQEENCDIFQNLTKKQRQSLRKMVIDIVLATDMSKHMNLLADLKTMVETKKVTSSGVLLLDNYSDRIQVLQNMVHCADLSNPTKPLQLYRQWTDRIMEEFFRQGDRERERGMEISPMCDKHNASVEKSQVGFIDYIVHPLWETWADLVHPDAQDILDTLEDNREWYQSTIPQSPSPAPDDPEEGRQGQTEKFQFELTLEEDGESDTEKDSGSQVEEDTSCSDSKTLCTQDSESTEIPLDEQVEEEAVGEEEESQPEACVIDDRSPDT
Chain of PDE4D5 (Q08499 1-745 isoform Q08499-6): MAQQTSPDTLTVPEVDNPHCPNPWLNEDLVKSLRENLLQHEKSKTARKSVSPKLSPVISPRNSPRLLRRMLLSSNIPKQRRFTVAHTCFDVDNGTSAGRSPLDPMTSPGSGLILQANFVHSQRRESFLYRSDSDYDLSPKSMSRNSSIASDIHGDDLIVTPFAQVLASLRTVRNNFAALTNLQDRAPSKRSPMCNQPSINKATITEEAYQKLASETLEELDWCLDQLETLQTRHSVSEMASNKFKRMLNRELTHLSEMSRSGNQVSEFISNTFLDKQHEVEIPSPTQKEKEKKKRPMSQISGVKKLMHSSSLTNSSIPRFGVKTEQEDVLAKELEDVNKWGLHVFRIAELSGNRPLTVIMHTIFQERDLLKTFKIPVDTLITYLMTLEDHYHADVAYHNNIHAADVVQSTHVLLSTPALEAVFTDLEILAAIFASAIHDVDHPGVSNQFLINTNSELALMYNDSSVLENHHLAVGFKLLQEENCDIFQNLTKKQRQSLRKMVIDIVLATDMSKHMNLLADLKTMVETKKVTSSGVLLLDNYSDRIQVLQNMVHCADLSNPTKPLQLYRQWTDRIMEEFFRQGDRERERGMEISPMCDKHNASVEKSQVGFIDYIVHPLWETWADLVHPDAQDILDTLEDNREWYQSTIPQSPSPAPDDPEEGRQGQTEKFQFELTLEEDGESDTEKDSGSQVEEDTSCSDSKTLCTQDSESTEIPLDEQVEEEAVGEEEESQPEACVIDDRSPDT
Chain of PDE4A4 (P27815 whole entry): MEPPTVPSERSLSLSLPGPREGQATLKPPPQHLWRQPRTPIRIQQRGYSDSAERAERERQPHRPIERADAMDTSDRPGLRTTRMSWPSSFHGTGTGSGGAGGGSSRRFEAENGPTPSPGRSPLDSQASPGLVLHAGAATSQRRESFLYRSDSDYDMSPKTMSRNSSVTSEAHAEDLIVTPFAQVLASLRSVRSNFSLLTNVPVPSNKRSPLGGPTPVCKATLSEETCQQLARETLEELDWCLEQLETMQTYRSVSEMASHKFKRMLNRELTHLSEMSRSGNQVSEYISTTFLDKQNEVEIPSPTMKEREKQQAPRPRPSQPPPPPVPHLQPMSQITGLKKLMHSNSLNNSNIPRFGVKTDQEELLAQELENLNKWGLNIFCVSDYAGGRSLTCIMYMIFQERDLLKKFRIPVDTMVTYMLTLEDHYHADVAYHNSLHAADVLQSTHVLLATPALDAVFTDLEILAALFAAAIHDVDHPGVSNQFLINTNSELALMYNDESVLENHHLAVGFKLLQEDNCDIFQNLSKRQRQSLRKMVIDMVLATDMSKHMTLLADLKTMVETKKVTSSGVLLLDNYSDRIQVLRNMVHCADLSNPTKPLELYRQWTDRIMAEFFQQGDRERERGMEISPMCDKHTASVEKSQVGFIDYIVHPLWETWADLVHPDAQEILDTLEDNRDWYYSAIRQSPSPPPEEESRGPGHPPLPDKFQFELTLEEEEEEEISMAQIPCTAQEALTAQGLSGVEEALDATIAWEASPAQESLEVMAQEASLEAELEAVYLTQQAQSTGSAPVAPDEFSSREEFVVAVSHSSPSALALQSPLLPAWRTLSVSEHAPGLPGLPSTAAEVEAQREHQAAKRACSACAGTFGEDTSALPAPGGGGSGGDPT

Compound: O=C(Nc1c(Cl)cncc1Cl)c1ccc(OC(F)F)c(OCC2CC2)c1 [Roflumilast, reference compound]
- Health status or body weight gain [1]: did not influence
- Increase of TNF-α levels observed at 1 hour after LPS (LPS-induced TNF-α; oral, 1 and 3 mg/kg): attenuated

Compound: O=C(Cc1c(Cl)c[n+]([O-])cc1Cl)c1ccc(OC(F)F)c2c1OC1(CCS(=O)(=O)CC1)O2 [Compound (I), 2-(3,5-Dichloro-1-oxido-pyridine-4-yl)-1-(7-difluoro-methoxy-2′,3′,5′,6′-tetrahydro-spiro[1,3-benzodioxole-2, 4′-(4H)-thiopyran-1′,1′-dioxide]-4-yl)ethanone]
- EC50 values, PDE4D SPA [2]: 7.5 ng/mL (≈ 0.0147 µM)
- IC50 (PDE4A4): 11.3 nM
- IC50 (PDE4A10): 52.3 nM
- IC50 (PDE4B1): 15.7 nM
- IC50 (PDE4B2): 5.6 nM
- IC50 (PDE4B3): 2.94 nM
- IC50 (PDE4D1): 8.67 nM
- IC50 (PDE4D2): 2.03 nM
- IC50 (PDE4D3): 1.75 nM
- IC50 (PDE4D5): 2.18 nM
- IC50 (PDE4D7): 2.94 nM
- HS lesions [3, 5]: gradually improved
- pyoderma wounds [3, 5]: slowly recovered
- HS lesions [3, 6]: remained calm
- pyoderma wounds [3, 6]: completely healed
- IC50 (PDE4A1): 16.4 nM
- Health status or body weight gain [1]: not to influence
- Increase of TNF-α levels observed at 1 hour after LPS (LPS-induced TNF-α; oral, 1, 3 and 10 mg/kg): attenuated

Compound: CCOc1cc([C@@H](CS(C)(=O)=O)N2C(=O)c3cccc(NC(C)=O)c3C2=O)ccc1OC [Apremilast]
- Lesion healing (resistant vegetative PG): Complete healing of one lesion and partial healing of another

Compound: C[C@@H]1CCN(C(=O)CC#N)C[C@@H]1N(C)c1ncnc2[nH]ccc12 [Tofacitinib]
- Emax [4]: 100%
